According to the supplement of paper PMC13380429:

What was measured:
Details in all cases: 72 h
[1] = test system: Caco-2; experiment: cell viability relative to DMSO; higher = less toxic
[2] = test system: Calu-3; experiment: as above
[3] = test system: HepG2; experiment: as above
[4] = test system: Vero E6; experiment: as above
[5] = test system: Caco-2; experiment: relative viability EC50 (midpoint between 100% and the lowest measured viability); higher = less toxic
[6] = test system: Calu-3; experiment: as above
[7] = test system: HepG2; experiment: as above
[8] = test system: Vero E6; experiment: as above
[9] = test system: Caco-2; experiment: drug sensitivity score (DSS) for viability; higher = more toxic; extreme values may be limits of the assay
[10] = test system: Calu-3; experiment: as above
[11] = test system: HepG2; experiment: as above
[12] = test system: Vero E6; experiment: as above
[13] = test system: U2OS; experiment: cell viability relative to DMSO; higher = less toxic
[14] = test system: U2OS; experiment: relative viability EC50 (midpoint between 100% and the lowest measured viability); higher = less toxic
[15] = test system: U2OS; experiment: drug sensitivity score (DSS) for viability; higher = more toxic; extreme values may be limits of the assay

| Compound | cell viability ([1]; 1 nM) [%] | cell viability ([1]; 10 nM) [%] | cell viability ([1]; 100 nM) [%] | cell viability ([1]; 1000 nM) [%] | cell viability ([1]; 10000 nM) [%] | cell viability ([2]; 1 nM) [%] | cell viability ([2]; 10 nM) [%] | cell viability ([2]; 100 nM) [%] | cell viability ([2]; 1000 nM) [%] | cell viability ([2]; 10000 nM) [%] | cell viability ([3]; 1 nM) [%] | cell viability ([3]; 10 nM) [%] | cell viability ([3]; 100 nM) [%] | cell viability ([3]; 1000 nM) [%] | cell viability ([3]; 10000 nM) [%] | cell viability ([4]; 1 nM) [%] | cell viability ([4]; 10 nM) [%] | cell viability ([4]; 100 nM) [%] | cell viability ([4]; 1000 nM) [%] | cell viability ([4]; 10000 nM) [%] | relative viability EC50 [5] [µM] | relative viability EC50 [6] [µM] | relative viability EC50 [7] [µM] | relative viability EC50 [8] [µM] | drug sensitivity score [9] | drug sensitivity score [10] | drug sensitivity score [11] | drug sensitivity score [12] | cell viability ([13]; 1 nM) [%] | cell viability ([13]; 10 nM) [%] | cell viability ([13]; 100 nM) [%] | cell viability ([13]; 1000 nM) [%] | cell viability ([13]; 10000 nM) [%] | relative viability EC50 [14] [µM] | drug sensitivity score [15] |
| --- | --- | --- | --- | --- | --- | --- | --- | --- | --- | --- | --- | --- | --- | --- | --- | --- | --- | --- | --- | --- | --- | --- | --- | --- | --- | --- | --- | --- | --- | --- | --- | --- | --- | --- | --- |
| CC(=O)N1CCC[C@H]1C(=O)N[C@@H](Cc1cnc[nH]1)C(=O)N[C@@H](CO)C(=O)N[C@@H](CS)C(=O)N[C@@H](CC(N)=O)C(N)=O [ATN-161] | 107 | 96.6 | 97.5 | 103 | 104 | 102 | 102 | 101 | 107 | 97.2 | 102 | 104 | 106 | 93.4 | 106 | 92.9 | 103 | 96.9 | 100 | 108 | > 10 | > 10 | > 10 | > 10 | 0 | 0 | 0 | 0 | – | – | – | – | – | – | – |
| C[C@@H]1COCCN1c1cc(C2([S@](C)(=N)=O)CC2)nc(-c2ccnc3[nH]ccc23)n1 [AZD6738] | 92.8 | 100 | 103 | 96.7 | 49.8 | 92.8 | 96 | 108 | 92.7 | 50.2 | 94.5 | 88.6 | 104 | 67.7 | 35.6 | 98.8 | 94.5 | 92.1 | 90.9 | 78.5 | 2.65 | – | 0.998 | > 10 | 3.1 | 3.9 | 7.6 | 1.3 | 94.1 | 101 | 100 | 96.8 | 16.8 | 2.88 | 5.1 |
| O=c1[nH]c2ccc(Cl)cc2c(N[C@@H]2CN3CCC2CC3)c1-c1nc2ccccc2[nH]1 [CHIR-124] | 103 | 96.9 | 111 | 66.9 | 44 | 92.3 | 91.8 | 105 | 97.3 | 59.9 | 103 | 99.3 | 101 | 36.7 | 3.1 | 105 | 103 | 105 | 77.6 | 6.6 | 0.869 | – | 0.777 | 1.59 | 7 | 2.4 | 12.7 | 8.6 | 94.1 | 96.9 | 95.3 | 4.5 | 0.8 | 0.307 | 18 |
| O=C1COc2nccc(-c3ccccc3F)c2CN1Cc1cc(C(F)(F)F)cc(C(F)(F)F)c1 [GPBAR-A] | 102 | 102 | 106 | 102 | 86.9 | 81.2 | 104 | 67.2 | 98.7 | 68.1 | 108 | 91.3 | 103 | 94.4 | 100 | 101 | 99 | 98.9 | 101 | 102 | > 10 | – | > 10 | > 10 | 0.1 | 4.3 | 0 | 0 | 97.7 | 103 | 100 | 104 | 91.2 | > 10 | 0 |
| CNc1ncnc2c1ncn2[C@@H]1O[C@H](CO)[C@@H](O)[C@H]1O [N6-methyladenosine] | 109 | 112 | 98.5 | 110 | 106 | 110 | 89.5 | 102 | 92 | 86 | 105 | 108 | 101 | 104 | 81.2 | 99.8 | 103 | 102 | 98.7 | 102 | > 10 | > 10 | > 10 | > 10 | 0 | 0.7 | 0.3 | 0 | – | – | – | – | – | – | – |
| CCNC(=O)[C@H]1O[C@@H](n2cnc3c(N)ncnc32)[C@H](O)[C@@H]1O [NECA] | 102 | 97.6 | 110 | 111 | 110 | 106 | 102 | 94.9 | 88.5 | 92.8 | 94.8 | 102 | 107 | 105 | 105 | 100 | 105 | 96.1 | 101 | 94.4 | > 10 | > 10 | > 10 | > 10 | 0 | 0.6 | 0 | 0 | – | – | – | – | – | – | – |
